Data taken from the supplement of paper PMC11451515.

System: SEM cells
Experiment: cell viability relative to DMSO control; higher = less cytotoxic
Details: 48 h
How it was run: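 Library compounds in DMSO were pin-dosed in an 11-point threefold series (47 μM to 0.79 nM) onto leukemia cells in 1536-well plates (5 μl). Plates held 500 cells/well of NOMO1 or SEM or 1000 cells/well of P12-Ichikawa, each adapted for at least four passages in each medium. Luminescence was read with CellTiter-Glo One after 48 h at 37°C. Viability means the per-plate percentage relative to DMSO wells, using cell-free wells as background.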

[1] = HPLM + 10% dialyzed FBS, 0.000781 µM
[2] = HPLM + 10% dialyzed FBS, 0.00234 µM
[3] = HPLM + 10% dialyzed FBS, 0.00702 µM
[4] = HPLM + 10% dialyzed FBS, 0.0211 µM
[5] = HPLM + 10% dialyzed FBS, 0.0632 µM
[6] = HPLM + 10% dialyzed FBS, 0.19 µM
[7] = HPLM + 10% dialyzed FBS, 0.569 µM
[8] = HPLM + 10% dialyzed FBS, 1.71 µM
[9] = HPLM + 10% dialyzed FBS, 5.12 µM
[10] = HPLM + 10% dialyzed FBS, 15.4 µM
[11] = HPLM + 10% dialyzed FBS, 46.1 µM
[12] = RPMI 5 mM glucose + 10% FBS, 0.000781 µM
[13] = RPMI 5 mM glucose + 10% FBS, 0.00234 µM
[14] = RPMI 5 mM glucose + 10% FBS, 0.00702 µM
[15] = RPMI 5 mM glucose + 10% FBS, 0.0211 µM
[16] = RPMI 5 mM glucose + 10% FBS, 0.0632 µM
[17] = RPMI 5 mM glucose + 10% FBS, 0.19 µM
[18] = RPMI 5 mM glucose + 10% FBS, 0.569 µM
[19] = RPMI 5 mM glucose + 10% FBS, 1.71 µM
[20] = RPMI 5 mM glucose + 10% FBS, 5.12 µM
[21] = RPMI 5 mM glucose + 10% FBS, 15.4 µM
[22] = RPMI 5 mM glucose + 10% FBS, 46.1 µM

Compound	cell viability [1] [%]	cell viability [2] [%]	cell viability [3] [%]	cell viability [4] [%]	cell viability [5] [%]	cell viability [6] [%]	cell viability [7] [%]	cell viability [8] [%]	cell viability [9] [%]	cell viability [10] [%]	cell viability [11] [%]	cell viability [12] [%]	cell viability [13] [%]	cell viability [14] [%]	cell viability [15] [%]	cell viability [16] [%]	cell viability [17] [%]	cell viability [18] [%]	cell viability [19] [%]	cell viability [20] [%]	cell viability [21] [%]	cell viability [22] [%]	cell viability (RPMI 5 mM glucose + 10% dialyzed FBS, 0.000781 µM) [%]	cell viability (RPMI 5 mM glucose + 10% dialyzed FBS, 0.00234 µM) [%]	cell viability (RPMI 5 mM glucose + 10% dialyzed FBS, 0.00702 µM) [%]	cell viability (RPMI 5 mM glucose + 10% dialyzed FBS, 0.0211 µM) [%]	cell viability (RPMI 5 mM glucose + 10% dialyzed FBS, 0.0632 µM) [%]	cell viability (RPMI 5 mM glucose + 10% dialyzed FBS, 0.19 µM) [%]	cell viability (RPMI 5 mM glucose + 10% dialyzed FBS, 0.569 µM) [%]	cell viability (RPMI 5 mM glucose + 10% dialyzed FBS, 1.71 µM) [%]	cell viability (RPMI 5 mM glucose + 10% dialyzed FBS, 5.12 µM) [%]	cell viability (RPMI 5 mM glucose + 10% dialyzed FBS, 15.4 µM) [%]	cell viability (RPMI 5 mM glucose + 10% dialyzed FBS, 46.1 µM) [%]
COc1ccc(-n2nc(C(N)=O)c3c2C(=O)N(c2ccc(N4CCCCC4=O)cc2)CC3)cc1	99.5	116	132	142	120	137	134	130	133	145	128	120	136	117	124	101	120	136	145	136	154	136											
S=C1N\C=N/C2=C1[NH]C=N2	91.2	116	136	121	131	126	124	105	106	90.6	81.7	104	119	144	119	132	139	108	93.3	79.5	73.2	66.4	105	119	138	106	134	119	91.3	56.7	48.5	42.4	33.7
